According to PMC9645390, “Amphiphilic stilbene derivatives attenuate the neurotoxicity of soluble Aβ42 oligomers by controlling their interactions with cell membranes” (Chemical Science, 2022):

Key:
[1] = Alamar Blue cytotoxicity assay in N2a cells; format: cell-based, mouse; conditions: mouse, N2a (Neuro2A) neuroblastoma cells, up to 10 μM, 40 h, read-out: cell viability
Method: After confirming these amphiphilic compounds can bind to Aβ species both in vitro and ex vivo, we next investigated whether these compounds could attenuate the toxicity of the Cu–Aβ species, as the Cu^2+ ions were reported to promote the formation of neurotoxic soluble Aβ42 oligomers.[45,46] Firstly, the Alamar Blue cell viability assay was used to measure the cytotoxicity of the compounds at different concentrations ranging from 20 μM to 2 μM in mouse neuroblastoma N2a cells (Fig. 8). […] Considering its high binding affinity to both Aβ fibrils and oligomers, we also further tested its ability to alleviate Cu^2+–Aβ42-induced toxicity. […] The underlying mechanism is unclear, but we propose that these compounds might perform similarly to the toxic oligomers that bind to some cell membrane receptors or insert into the membrane lipids to form porous channels.
Alamar Blue assay was chosen for the cytotoxicity studies.3 Mouse neuroblastoma Neuro2A (N2A) cells were grown with DMEM/10% FBS in a petri dish at 37 °C in a humidified atmosphere with 5% CO2. Then N2A cells were seeded in a 96-well plate (1.0 × 10^4/well). After 24 h incubation, cell media was changed to DMEM/N-2, and N2A cells were incubated for another 1 h. Then the cells were treated with different concentrations of compounds for 40 h, Alamar Blue solution (10 μL) was added, and the cells were incubated for another 90 min at 37 °C. The fluorescence intensity of each well was measured at 590 nm (excitation wavelength = 560 nm).
(§1) For the Cu2+-Aβ-induced toxicity studies, cells were treated monomeric Aβ42, Cu2+, monomeric Aβ42 + Cu2+, and monomeric Aβ42 + Cu2+ + compounds, monomeric Aβ42 + Cu2+ + copper chelators (Me2HTACN or Me3TACN), respectively. After 40 h incubation, Alamar Blue solution (10 μL) was added, and the cells were incubated for another 90 min at 37 °C. The fluorescence intensity of each well was measured at 590 nm (excitation wavelength = 560 nm). […]

[2] = system: Cu2+–Aβ42 species in Neuro2A cells; assay: Cu2+-Aβ42-induced toxicity in Neuro2A cells (Alamar Blue); format: cell-based, mouse; conditions: [Aβ42] = [Cu2+] = 40 μM, compound 10 μM (ZY-12-OMe 5 μM), 40 h
Method: As mentioned above, compounds that are not cytotoxic at 10 μM, including ZY-12-MT, ZY-15-MT, ZY-15-OMe, ZY-17-MT, ZY-5-MT, ZY-5-DT, ZY-5-OMe, and ZY-12-OMe, were chosen for this study. Firstly, during the control studies, we observed that monomeric Aβ42 led to negligible neurotoxicity. Nevertheless, in the presence of both Cu^2+ and monomeric Aβ42, there was a significant cell death, which is likely due to the Cu^2+ associated neurotoxic Aβ42 oligomers formation.[46] […] According to the docking results, ZY-12-MT, ZY-15-OMe, ZY-15-MT, and ZY-5-OMe interact with Aβ42 tetramers mainly through residues His6, Asp7, Tyr10 (via hydrogen bonds), and Tyr10 (via π–π interactions). Some reports have also shown that His6, Asp7, and Tyr10 are potentially involved in the Cu–Aβ interactions, which explains why the compounds are able to attenuate the Cu–Aβ toxicity.[48]
Fig. 9 Cell viability results upon incubation of Neuro2A cells with monomeric Aβ42 in the presence or absence of metal ions and amphiphilic compounds. Concentrations: [Aβ42] = 40 μM, [Cu^2+] = 40 μM, [ZY-12-MT] = [ZY-15-OMe] = [ZY-15-MT] = [ZY-17-MT] = [ZY-5-OMe] = [ZY-5-MT] = [ZY-5-DT] = 10 μM, [ZY-12-OMe] = 5 μM. The error bars represent the standard deviation from five independent experiments, and the statistical analysis was evaluated according to one-way ANOVA (*p < 0.05).
Alamar Blue assay was chosen for the cytotoxicity studies.3 Mouse neuroblastoma Neuro2A (N2A) cells were grown with DMEM/10% FBS in a petri dish at 37 °C in a humidified atmosphere with 5% CO2. Then N2A cells were seeded in a 96-well plate (1.0 × 10^4/well). After 24 h incubation, cell media was changed to DMEM/N-2, and N2A cells were incubated for another 1 h. […]
as §1
10. The effect of copper chelators on Cu2+-Aβ42 neurotoxicity
Figure S8. Cell viability results upon incubation of Neuro2A cells with 10 μM copper chelators (Me2HTACN or Me3TACN) in the presence or absence of 40 μM (Aβ42 + Cu2+). The error bars represent the standard deviation from five independent experiments, and the statistical analysis was evaluated according to one-way ANOVA. […]

[3] = system: SH-SY5Y cells; assay: Cell toxicity studies in SH-SY5Y cells; format: cell-based, human; conditions: 10 µM
From the text: Encouraged by the ability of the developed amphiphilic compounds to attenuate the neurotoxicity of Cu–Aβ species, we sought out to study the possible molecular mechanisms for this beneficial effect. The Aβ oligomers were reported to interact with cell membranes in various ways, such as binding to receptors on cell membranes,[49,50] inserting into membranes,[51] or even showing cellular uptake via endocytosis.[52] The abnormal interactions between Aβ oligomers and neuron cells, which could disrupt the neuronal ion homeostasis and neuron cell membrane integrity, might be why Aβ oligomers are highly neurotoxic.[53–55] Moreover, molecules that can disrupt interactions between oligomers and cell membranes are promising candidates for drug development.[56,57] Thus, we proceeded to probe the interactions of the Aβ42 oligomers with SH-SY5Y cellular membranes, in the absence and presence of the compounds, via confocal microscopy. […] Moreover, a lower concentration of Aβ42 (5 μM) or Aβ42–Cu (5 μM) were chosen to avoid significant cell death (Fig. S9b ^†). Before investigating the neuroprotective effect of our compounds, we have also confirmed that Aβ aggregates interact tightly with the cell membranes, as shown via co-staining with a membrane specific dye (Fig. S10 ^†). Subsequently, SH-SY5Y cells were treated with Aβ oligomers or a combination of Aβ oligomers and compounds for 24 h, followed by the immunofluorescence staining with the CF594-labeled anti-Aβ antibody HJ 3.4 (Fig. 10) and nuclei staining, shown in the red and blue channels, respectively. Compared to the untreated group, the Aβ oligomers were found mainly bound to cell membranes. […] To understand this unusual behavior, we posited that the Aβ oligomers would start the fibrilization process when incubated in the cell media. […] Therefore, we proceeded to probe if our compounds could prevent the binding of Aβ fibrils to cell membranes. […] Given these encouraging results, we moved to study if the amphiphilic compounds can further control the interactions between Cu–Aβ species and cell membranes. Firstly, when SH-SY5Y cells were treated with Aβ monomers for 48 h, the aggregated Aβ species interacting with cell membranes were observed (Fig. 11a). […] However, these aggregates are still smaller than the insoluble fibrils (Fig. S11 ^†), indicating they are still soluble oligomeric Aβ species.
11. Cell toxicity studies in SH-SY5Y cells
Figure S9. Cell toxicity studies in SH-SY5Y cells. a) [ZY- 12-MT] = [ZY-15-OMe] = [ZY-15-MT] = [ZY-5-OMe] =
10 µM. b) Average cell numbers in presence of 5 µM Aβ42 monomer, 5 µM (Aβ42 monomer + Cu2+), 5 µM (Aβ42
monomer + Cu2+ + ZY-15-MT) and 5 µM (Aβ42 monomer + Cu2+ + ZY-15-OMe).
(1 picture or pasted object on this page, not shown here)

| Compound | viability at 40 h [1] [%] | effect on Cu2+–Aβ42-induced toxicity (cell viability, in words) [2] | toxicity towards SH-SY5Y cells (in words) [3] |
| --- | --- | --- | --- |
| COc1cc(/C=C/c2ccc(-c3ccc(N(C)C)cc3)s2)cc(CN2CCN(C)CCN(C)CC2)c1O [ZY-5-OMe] | > 80 | could significantly increase cell viability | not toxic towards SH-SY5Y cells |
| COc1cc(/C=C/c2ccc(-c3ccc(C=O)cc3)s2)cc(CN2CCN(C)CCN(C)CC2)c1O [ZY-15-OMe] | > 80 | could significantly increase cell viability | not toxic towards SH-SY5Y cells |
| CN1CCN(C)CCN(Cc2cc(-c3ccc(/C=C/c4ccc(N(C)C)cc4)s3)ccc2O)CC1 [ZY-12-MT] | > 80 | could significantly increase cell viability | not toxic towards SH-SY5Y cells |
| CN1CCN(C)CCN(Cc2cc(/C=C/c3ccc(-c4ccc(C=O)cc4)s3)ccc2O)CC1 [ZY-15-MT] | > 80 | could significantly increase cell viability | not toxic towards SH-SY5Y cells |
